From patent publication US20170066717A1, “NEW PHENYLAZETIDINECARBOXYLATE OR -CARBOXAMIDE COMPOUNDS” (INVENTIVA, priority 2014, published 2017)

Tests used:
[1] = target: T1, NURR-1/RXRα (Homo sapiens, UniProt P19793); assay: Transactivation test, NURR-1-Gal4/RXRα, luciferase reporter in Cos-7 cells; assay type: cell-based; conditions: for Emax: COS-7, induction level relative to reference XCT0135908 at 2×10^−5 M (=100%), read-out: hNurr1_RXRaFL Emax (%); for EC50: Cos-7 cells, NURR-1-Gal4/RXRα, luciferase reporter, read-out: hNurr1_RXRaFL EC50
T1 construct: expressed in transfected cells; host or cells: Cos-7 cells
T1 sequence (P19793 whole entry, the tested form may be a part): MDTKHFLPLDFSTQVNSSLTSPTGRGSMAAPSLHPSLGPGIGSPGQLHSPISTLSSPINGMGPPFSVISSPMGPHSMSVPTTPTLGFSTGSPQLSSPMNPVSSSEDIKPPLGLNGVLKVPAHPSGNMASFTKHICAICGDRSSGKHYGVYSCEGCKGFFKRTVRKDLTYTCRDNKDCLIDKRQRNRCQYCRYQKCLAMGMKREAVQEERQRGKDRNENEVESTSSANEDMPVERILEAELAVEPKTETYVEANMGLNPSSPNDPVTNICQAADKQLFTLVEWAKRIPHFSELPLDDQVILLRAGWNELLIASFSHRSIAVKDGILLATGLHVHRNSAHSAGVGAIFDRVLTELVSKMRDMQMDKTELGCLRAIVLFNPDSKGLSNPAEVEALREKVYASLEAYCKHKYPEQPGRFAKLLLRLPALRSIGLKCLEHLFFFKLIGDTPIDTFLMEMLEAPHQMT
T1 sequence (P43354 whole entry partner, the tested form may be a part): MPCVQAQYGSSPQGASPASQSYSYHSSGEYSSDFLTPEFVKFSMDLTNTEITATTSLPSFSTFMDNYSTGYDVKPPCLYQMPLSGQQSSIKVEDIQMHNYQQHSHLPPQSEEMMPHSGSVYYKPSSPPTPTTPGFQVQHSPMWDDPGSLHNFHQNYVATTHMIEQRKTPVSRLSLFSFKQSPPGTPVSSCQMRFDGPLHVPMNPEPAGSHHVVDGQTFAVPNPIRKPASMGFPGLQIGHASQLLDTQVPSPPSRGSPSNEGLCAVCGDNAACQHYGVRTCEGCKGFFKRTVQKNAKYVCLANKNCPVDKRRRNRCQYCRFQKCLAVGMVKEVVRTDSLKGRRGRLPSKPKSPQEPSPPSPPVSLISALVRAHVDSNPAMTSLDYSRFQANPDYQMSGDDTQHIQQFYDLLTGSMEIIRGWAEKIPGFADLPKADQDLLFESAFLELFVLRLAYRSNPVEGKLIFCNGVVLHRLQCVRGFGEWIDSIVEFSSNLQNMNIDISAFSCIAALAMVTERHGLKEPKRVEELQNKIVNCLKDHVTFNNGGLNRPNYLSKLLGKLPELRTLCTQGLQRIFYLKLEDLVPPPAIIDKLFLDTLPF
T1 sequence (P04386 1-147 partner limits assumed): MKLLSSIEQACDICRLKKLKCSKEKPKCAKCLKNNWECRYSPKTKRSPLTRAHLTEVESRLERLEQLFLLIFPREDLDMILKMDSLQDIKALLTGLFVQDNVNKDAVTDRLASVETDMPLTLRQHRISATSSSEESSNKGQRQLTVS

[2] = target: T2, NURR-1/RXRγ (Homo sapiens, UniProt P48443); assay: Transactivation test, NURR-1-Gal4/RXRγ, luciferase reporter in Cos-7 cells; assay type: cell-based; conditions: for Emax: COS-7, induction level relative to reference XCT0135908 at 2×10^−5 M (=100%), read-out: hNurr1_RXRgFL Emax (%); for EC50: Cos-7 cells, NURR-1-Gal4/RXRγ, luciferase reporter, read-out: hNurr1_RXRgFL EC50
T2 construct: expressed in transfected cells; host or cells: Cos-7 cells
T2 sequence (P48443 whole entry, the tested form may be a part): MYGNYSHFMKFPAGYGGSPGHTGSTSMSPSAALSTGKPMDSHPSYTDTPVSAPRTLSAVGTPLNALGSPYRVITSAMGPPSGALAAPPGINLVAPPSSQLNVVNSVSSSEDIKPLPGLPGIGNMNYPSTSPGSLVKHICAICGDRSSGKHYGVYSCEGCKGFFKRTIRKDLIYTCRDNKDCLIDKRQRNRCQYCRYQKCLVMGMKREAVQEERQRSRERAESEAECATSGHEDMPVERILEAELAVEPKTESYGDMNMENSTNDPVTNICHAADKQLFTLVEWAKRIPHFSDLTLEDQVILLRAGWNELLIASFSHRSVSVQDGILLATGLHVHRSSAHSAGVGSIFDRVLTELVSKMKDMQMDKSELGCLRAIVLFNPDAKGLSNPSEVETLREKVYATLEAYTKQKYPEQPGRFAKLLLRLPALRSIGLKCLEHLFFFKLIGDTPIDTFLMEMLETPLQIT
T2 sequence (P43354 whole entry partner, the tested form may be a part): as the sequence (P43354 whole entry partner, the tested form may be a part) above
T2 sequence (P04386 1-147 partner limits assumed): as the sequence (P04386 1-147 partner limits assumed) above

[3] = system: dopaminergic neurons of primary culture of rat embryo mesencephalon treated with MPP+; assay: Neuroprotection in primary culture of rat embryo mesencephalon treated with MPP+ (count of tyrosine hydroxylase expressing cells); assay type: cell-based; conditions: recombinant human BDNF 10 ng/mL = 100%, 2 days with MPP+
Summary of the method: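 Rat embryo (E15) mesencephalon cultures, 5 days, then MPP+ with or without compound on day 6 for 2 days. Tyrosine hydroxylase-immunolabelled cells counted by image analysis; activity expressed as percent of recombinant human BDNF (10 ng/mL) reference, set at 100%.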

[4] = Plasma pharmacokinetics in mice after oral administration; assay type: in vivo; conditions: mouse, male C57/Bl6 mice, oral 10 mg/kg; for AUC: sampling 15 min to 7 h, log-linear trapezoidal method, read-out: AUCplasma; for Cmax: suspension in 1% methylcellulose/0.1% Poloxamer 188
Description: (§1) Three series of in vivo tests were carried out with compounds representative of the invention, for the purpose of determining their pharmacokinetic plasma profile and their brain penetration.
1. Study of the Plasma Phannacokinectis in Mice After Oral Administration
Male C57/B16 mice (25-30 g) originating from the establishment Janvier, Le Genest-St-Isle, France were used for this study (9 mice per dose). The animals were fed with standard feed for rodents (Purina Mills, St. Louis, Mo.), placed in cages and subjected to light/darkness cycles of 12 h/12 h, the temperature of the room being maintained at 22±2° C. and the humidity level at 55±10%.
The mice were not deprived food before the administration. Water was provided at will throughout the study. The test compound was admistered orally at 10 mg/kg. For the oral administration at 10 mg/kg, the animals were green, by gavage, 10 mL/kg of a suspension of the test compound, prepared in 1% methylcellulose, 400 cps/0.1% Poloxamer 188/water.
The animals were sacrificed under anesthesia at times 15 min, 30 min, 1 h, 3 h and 7 h after gavage. The blood was collected at each time, and from each animal sacrificed 0.5 mL of blood collected in 1.5 mL tubes containing 20 μL of evaporated anticoagulant (solution of sodium heparinate at 1000 IU/mL) was centrifuged at 4500 g for 3 min in order to obtain approximately 200 μL of plasma. The plasma was divided up into 2 aliquots of 70 μL minimum, which were stoted at −20° C. until they were treated by protein precipitation and then analysis by liquid chromatography coupled to tandem mass spectrometry (LC-MS/MS) in order to quantify the compound tested.
The pharmacokinetic plasma parameters in the mice after oral administration were determined using a non-compartmental approach with the Phoenix WinNonLin software. The area under the curve (AUC0-1) was determined bv the log-linear trapezoidal method. The tesults are brought together in the following table.

[5] = Brain penetration in rats after intravenous administration; assay type: in vivo; conditions: rat; for Kp at 4 h: male, Wistar, intravenous, 4 mg/kg, ratio of Cmax brain to Cmax plasma after the 4 hours of infusion, rats, read-out: Kp (partition coefficient between the brain and the plasma); for Cmax at 4 h: male Wistar rats, 4 mg/kg iv infusion into the jugular vein for 4 hours, plasma at end of infusion
Description: as §1
2. Study of the Brain Penetration in Rats After Intravenous Administration
Male Wistar rats (250-300 g) originating from the establishment Janvier, Le Genest-St-Isle, France were used for this study (4 rats per study). The animals were fed with standard feed for rodents (Purina Mills, St. Louis, Mo.), placed in cages and subjected to light/darkness cycles of 12 h/12 h, the room temperature being maintained at 22±2° C. and the humidity level at 55±10%. The rats were not deprived food before the administration. Water was provided at will throughout the study.
The test compound was administered intravenously at 4 mg/kg by infusion into the jugular vein for 4 hours. For the intravenous administration, the animals were infused with 12 mL/kg of a solution of the test compound, prepared in 2% Cremophor EL/0.9% NaCl.
The animals were sacrificed under anesthesia after 4 hours of infusion. The blood and the brain were collected from each sacrificed animal 0.5 mL of blood collected in 1.5 mL tubes containing 20 μL of evaporated anticoagulant (solution of sodium heparinate at 1000 IU/mL) was centrifuged at 4500 g for 3 min in order to obtain approximately 200 μL of plasma. The plasma was divided up into 2 aliquots of 70 μL minimum, which were stored at −20° C. until they were treated by protein precipitation and then analysis by liquid chromatography coupled to tandem mass spectrometry (LC-MS/MS) in order to quantify the compound tested.
The brains were immersed in liquid nitrogen directly after they were removed, then stored at −20° C. for analysis. The brains were then ground in the presence of an aqueous/organic solvent mixture in order to obtain a homogenate. These homogenates were then centrifuged and the compound tested was extracted from the supernatant obtained, by liquid-liquid extraction, and then quantified by LC-MS/MS.
The brain penetration in the rats is represented by the Kp, which is the partition coefficient between the brain and the plasma. It is calculated by the ratio of the concentration measured in the brain (Cmax brain) and the plasma (Cmax plasma) after the 4 hours of infusion.

Row | Structure (SMILES) | Emax [1] | EC50 [1] | Emax [2] | EC50 [2] | percentage of activity relative to the BDNF reference ([3]; compound 1 μM) | percentage of activity relative to the BDNF reference ([3]; compound 10 μM) | AUC [4] | Cmax [4] | Kp at 4 h [5] | Cmax at 4 h [5]
1 | O=C(O)C1CN(c2cccc(-c3cc(C(F)(F)F)ccc3OCCc3cccs3)c2)C1 [Example 100, 1-[3-[2-[2-(2-thienyl)ethoxy]-5-(trifluoromethyl)phenyl]phenyl]azetidine-3-carboxylic acid] | 63% | 14 nM | 63% | 24 nM | 100% | 106% | 56600 ng·h/mL | 11200 ng/mL | 0.75 | 6070 ng/mL
2 | Cc1nnc(COc2ccc(C(F)(F)F)cc2-c2cccc(N3CC(C(=O)O)C3)c2)o1 [Example 110, 1-[3-[2-[(5-methyl-1,3,4-oxadiazol-2-yl)methoxy]-5-(trifluoromethyl)phenyl]phenyl]azetidine-3-carboxylic acid] | 49% | 1510 nM | 32% | 1720 nM | 74% | 102% | 40100 ng·h/mL | 8710 ng/mL | 0.2 | 10100 ng/mL
3 | O=C(O)C1CN(c2cccc(N3CC4(CCC4)Oc4cc(C(F)(F)F)ccc43)c2)C1 [Example 113, 1-[3-[7-(trifluoromethyl)spiro[3H-1,4-benzoxazine-2,1′-cyclobutane]-4-yl]phenyl]azetidine-3-carboxylic acid] | 140% | 3 nM | 139% | 4 nM | 90% | 80% | 3340 ng·h/mL | 2290 ng/mL | 1.2 | 3430 ng/mL
4 | O=C(O)C1CN(c2cccc(N3CCOc4cc(C(F)(F)F)ccc43)c2)C1 [Example 115, 1-[3-[7-(trifluoromethyl)-2,3-dihydro-1,4-benzoxazin-4-yl]phenyl]azetidine-3-carboxylic acid] | 114% | 58 nM | 129% | 22 nM | 103% | 77% | 51600 ng·h/mL | 24400 ng/mL | 0.22 | 10600 ng/mL
5 | CCCC1Oc2cc(C(F)(F)F)ccc2N(c2cccc(N3CC(C(=O)O)C3)c2)C1=O (stereo not shown) [Example 122, 1-[3-[3-oxo-2-propyl-7-(trofluoromethyl)-1,4-benzoxazin-3-yl]phenyl]azetidine-3-caroxylic acid] | 93% | 13 nM | 95% | 14 nM | 92% | 39% | 34100 ng·h/mL | 7840 ng/mL | 1.14 | 3860 ng/mL
6 | CN(C)Cc1cn(-c2cccc(N3CC(C(=O)O)C3)c2)c2ccc(C(F)(F)F)cc12 [Example 130, 1-[3-[3-(dimethylaminomethyl)-5-(trifluoromethyl)indol-1-yl]phenyl]azetidine-3-carboxylic acid] | 113% | 246 nM | 109% | 513 nM | 57% | 103% | 23000 ng·h/mL | 13800 ng/mL | 0.13 | 9010 ng/mL
7 | O=C(O)C1CN(c2cccc(N3c4ccc(C(F)(F)F)cc4CC3Cc3ccccc3)c2)C1 (stereo not shown) [Example 147, 1-[3-[2-benzyl-5-(trifluoromethyl)indolin-1-yl]phenyl]azetidine-3 carboxylic acid] | 68% | 44 nM | 50% | 87 nM | 53% | 104% | 143000 ng·h/mL | 33000 ng/mL | 0.12 | 7910 ng/mL
